The text below walks through data of US20260355196A1, “INHIBITORS AND DEGRADERS OF PIP4K PROTEIN” (Larkspur Biosciences, Inc., priority 2023, published 2026).

Where only a bound is given, the exact number is not on record here.

The target in the first experiment is T1, PIP4K2C (Homo sapiens, UniProt Q8TBX8).
T1 sequence (Q8TBX8 1-421): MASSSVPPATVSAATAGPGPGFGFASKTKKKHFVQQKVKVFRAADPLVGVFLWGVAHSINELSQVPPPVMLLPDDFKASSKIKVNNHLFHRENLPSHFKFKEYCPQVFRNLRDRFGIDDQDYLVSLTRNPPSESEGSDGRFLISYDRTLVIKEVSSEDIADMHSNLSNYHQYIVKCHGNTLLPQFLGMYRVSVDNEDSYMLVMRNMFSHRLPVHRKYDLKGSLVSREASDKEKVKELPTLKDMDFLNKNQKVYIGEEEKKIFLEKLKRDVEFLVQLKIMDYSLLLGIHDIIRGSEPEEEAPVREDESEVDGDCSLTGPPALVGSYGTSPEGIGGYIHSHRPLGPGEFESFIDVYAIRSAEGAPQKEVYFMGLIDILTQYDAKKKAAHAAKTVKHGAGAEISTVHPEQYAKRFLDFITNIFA
Put plainly: HiBiT PIP4K2C degradation assay in MOLT-4 cells (endogenous PIP4K2C C-terminally tagged with HiBiT). Format: cell-based. Set-up: untagged in primary human PBMCs and monocyte-derived dendritic cells. Particulars: 6 hours of incubation time, rather than 24 hours; MOLT-4, top concentration 10 micromolar; read-out: HiBIT-degradation MOLT4 PIP4k2C DC50 (6 hours, marked *). Put shortly:
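MOLT-4 knock-in line, HiBiT on PIP4K2C C-terminus; 22,500 cells/well; 10-pt 3-fold titration from 10 micromolar, n=2; 24 h or 6 h, 37 C, 5% CO2; Nano-Glo HiBiT lytic luminescence; DC50 via Hill equation.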
Turning to `O=C1CC[C@@H](Nc2ccc(C3CCN(CC4CCN(C(=O)[C@H]5CC[C@H](Nc6ncc(F)c(-c7cccc(N8CCCOC8=O)c7)n6)CC5)CC4)CC3)c(F)c2)C(=O)N1` (single isomer, unassigned) [Compound 601], the DC50 is under 500 nM.
The same measure, in the same setting: in the case of `O=C1CC[C@@H](Nc2ccc(N3CCN([C@H]4CC[C@H](C(=O)N[C@H]5CC[C@H](Nc6ncc(F)c(-c7cccc(-n8ccccc8=O)c7)n6)CC5)CC4)CC3)c(F)c2)C(=O)N1` (single isomer, unassigned) [Compound 602] it was under 500 nM; in that of `O=C1CC[C@H](Nc2ccc(N3CCN([C@H]4CC[C@H](C(=O)N[C@H]5CC[C@H](Nc6ncc(F)c(-c7cccc(-n8ccccc8=O)c7)n6)CC5)CC4)CC3)c(F)c2)C(=O)N1` (single isomer, unassigned) [Compound 603], under 500 nM; in that of `Cn1nc([C@@H]2CCC(=O)NC2=O)c2ccc(C3CCN(CC4CCN(C(=O)O[C@H]5CC[C@H](Nc6ncc(F)c(-c7cccc(-n8ccccc8=O)c7)n6)CC5)CC4)CC3)cc21` (single isomer, unassigned) [Compound 638], under 500 nM.
Turning to `Cn1nc([C@H]2CCC(=O)NC2=O)c2ccc(C3CCN(CC4CCN(C(=O)O[C@H]5CC[C@H](Nc6ncc(F)c(-c7cccc(-n8ccccc8=O)c7)n6)CC5)CC4)CC3)cc21` (single isomer, unassigned) [Compound 639], the DC50 was under 500 nM.

Staying with this experiment, now noted: 24 hours incubation, MOLT-4, top concentration 10 micromolar; read-out: HiBIT-degradation MOLT4 PIP4k2C 24 hours DC50.
Consider `O=C1CCC(N2Cc3cc(OC4CCN(C(=O)C5CCN(C(=O)C6CCC[C@@H](Nc7ncc(Cl)c(-c8cccc(-c9ccccc9)c8)n7)C6)CC5)CC4)ccc3C2=O)C(=O)N1` (stereo in doubt) [Compound 77, cis-3-(5-((1-(1-(3-((4-([1,1′-biphenyl]-3-yl)-5-chloropyrimidin-2-yl)amino)cyclohexane-1-carbonyl)piperidine-4-carbonyl)piperidin-4-yl)oxy)-1-oxoisoindolin-2-yl)piperidine-2,6-dione], for which the DC50 is under 500 nM.
Same read-out and setting: in the case of `O=C1CCC(Nc2ccc(C3CCN(C[C@H]4CC[C@H](NC(=O)[C@H]5CCC[C@@H](Nc6ncc(F)c(-c7cccc(-n8ccccc8=O)c7)n6)C5)CC4)CC3)c(F)c2)C(=O)N1` (stereo in doubt) [Compound 324, trans-N-(cis-4-((4-(4-((2,6-dioxopiperidin-3-yl)amino)-2-fluorophenyl)piperidin-1-yl)methyl)cyclohexyl)-3-((5-fluoro-4-(3-(2-oxopyridin-1(2H)-yl)phenyl)pyrimidin-2-yl)amino)cyclohexane-1-carboxamide] it was under 500 nM.
With `Cn1c(=O)n(C2CCC(=O)NC2=O)c2ccc(C3CCN(CCN4CCC(C(=O)N5CCC[C@H](Nc6ncc(Cl)c(-c7cccc(-c8ccccc8)c7)n6)C5)CC4)CC3)cc21` (stereo partly drawn) [Compound 44, 3-(5-(1-(2-(4-((S)-3-((4-([1,1′-biphenyl]-3-yl)-5-chloropyrimidin-2-yl)amino)piperidine-1-carbonyl)piperidin-1-yl)ethyl)piperidin-4-yl)-3-methyl-2-oxo-2,3-dihydro-1H-benzo[d]imidazol-1-yl)piperidine-2,6-dione], the DC50 was under 500 nM.
Take `Cn1c(=O)n(C2CCC(=O)NC2=O)c2ccc(C3CCN(CCN4CCC(C(=O)N5CCC(Nc6ncc(Cl)c(-c7cccc(-c8ccccc8)c7)n6)CC5)CC4)CC3)cc21` (stereo not drawn) [Compound 45, 3-[5-[1-[2-[4-[4-[[5-chloro-4-(3-phenylphenyl)pyrimidin-2-yl]amino]piperidine-1-carbonyl]-1-piperidyl]ethyl]-4-piperidyl]-3-methyl-2-oxo-benzimidazol-1-yl]piperidine-2,6-dione]: the DC50 was under 500 nM.
For the compound `Cn1c(=O)n(C2CCC(=O)NC2=O)c2ccc(C3CCN(C(=O)CN4CCC(C(=O)N5CCC(Nc6ncc(Cl)c(-c7cccc(-c8ccccc8)c7)n6)CC5)CC4)CC3)cc21` (stereo not drawn) [Compound 46, 3-(5-(1-(2-(4-(4-((4-([1,1′-biphenyl]-3-yl)-5-chloropyrimidin-2-yl)amino)piperidine-1-carbonyl)piperidin-1-yl)acetyl)piperidin-4-yl)-3-methyl-2-oxo-2,3-dihydro-1H-benzo[d]imidazol-1-yl)piperidine-2,6-dione], the DC50 is under 500 nM.
In the case of `Cn1c(=O)n(C2CCC(=O)NC2=O)c2ccc(C3CCN(CC4CCN(CC(=O)N5CCC(Nc6ncc(Cl)c(-c7cccc(-c8ccccc8)c7)n6)CC5)CC4)CC3)cc21` (stereo not drawn) [Compound 47, 3-(5-(1-((1-(2-(4-((4-([1,1′-biphenyl]-3-yl)-5-chloropyrimidin-2-yl)amino)piperidin-1-yl)-2-oxoethyl)piperidin-4-yl)methyl)piperidin-4-yl)-3-methyl-2-oxo-2,3-dihydro-1H-benzo[d]imidazol-1-yl)piperidine-2,6-dione], the DC50 is under 500 nM.
Still for that read-out and setting: in the case of `O=C1CCC(Nc2ccc(C3CCN(C4CCN(CCC(=O)N5CCC(Nc6ncc(Cl)c(-c7cccc(-c8ccccc8)c7)n6)CC5)CC4)CC3)cc2)C(=O)N1` (stereo not drawn) [Compound 48, 3-((4-(1′-(3-(4-((4-([1,1′-biphenyl]-3-yl)-5-chloropyrimidin-2-yl)amino)piperidin-1-yl)-3-oxopropyl)-[1,4′-bipiperidin]-4-yl)phenyl)amino)piperidine-2,6-dione] it was under 500 nM.
As to `O=C1CCC(N2Cc3cc(C4CCN(CC5CCN(CC(=O)N6CCC(Nc7ncc(Cl)c(-c8cccc(-c9ccccc9)c8)n7)CC6)CC5)CC4)ccc3C2=O)C(=O)N1` (stereo not drawn) [Compound 50], the DC50 was under 500 nM.
The same measure, in the same setting: to `O=C1CCC(Nc2ccc(C3CCN(CC4CCN(CC(=O)N5CCC(Nc6ncc(Cl)c(-c7cccc(-c8ccccc8)c7)n6)CC5)CC4)CC3)cc2)C(=O)N1` (stereo not drawn) [Compound 53, 3-((4-(1-((1-(2-(4-((4-([1,1′-biphenyl]-3-yl)-5-chloropyrimidin-2-yl)amino)piperidin-1-yl)-2-oxoethyl)piperidin-4-yl)methyl)piperidin-4-yl)phenyl)amino)piperidine-2,6-dione] belongs 500 to 1000 nM; to `O=C1CCC(N2Cc3cc(C4CCN(C(=O)CN5CCC(C(=O)N6CCC(Nc7ncc(Cl)c(-c8cccc(-c9ccccc9)c8)n7)CC6)CC5)CC4)ccc3C2=O)C(=O)N1` (stereo not drawn) [Compound 56, 3-(5-(1-(2-(4-(4-((4-([1,1′-biphenyl]-3-yl)-5-chloropyrimidin-2-yl)amino)piperidine-1-carbonyl)piperidin-1-yl)acetyl)piperidin-4-yl)-1-oxoisoindolin-2-yl)piperidine-2,6-dione], under 500 nM.
In the case of `O=C(COc1cccc2c1C(=O)N(C1CCC(=O)NC1=O)C2=O)NCCCCCCCCCC(=O)N1CCC(Nc2ncc(Cl)c(-c3cccc(-c4ccccc4)c3)n2)CC1` (stereo not drawn) [Compound 66, N-(10-(4-((4-([1,1′-biphenyl]-3-yl)-5-chloropyrimidin-2-yl)amino)piperidin-1-yl)-10-oxodecyl)-2-((2-(2,6-dioxopiperidin-3-yl)-1,3-dioxoisoindolin-4-yl)oxy)acetamide], the DC50 lay in the range of 500 to 1000 nM.
For `O=C(COc1ccc2c(c1)CN(C1CCC(=O)NC1=O)C2=O)NCCC(=O)N1CCC(C(=O)N2CCC(Nc3ncc(Cl)c(-c4cccc(-c5ccccc5)c4)n3)CC2)CC1` (stereo not drawn) [Compound 67, N-(3-(4-(4-((4-([1,1′-biphenyl]-3-yl)-5-chloropyrimidin-2-yl)amino)piperidine-1-carbonyl)piperidin-1-yl)-3-oxopropyl)-2-((2-(2,6-dioxopiperidin-3-yl)-1-oxoisoindolin-5-yl)oxy)acetamide], the DC50 is under 500 nM.
Consider `O=C(COc1ccc2c(c1)CN(C1CCC(=O)NC1=O)C2=O)NCCCC(=O)N1CCC(C(=O)N2CCC(Nc3ncc(Cl)c(-c4cccc(-c5ccccc5)c4)n3)CC2)CC1` (stereo not drawn) [Compound 68, N-(4-(4-(4-((4-([1,1′-biphenyl]-3-yl)-5-chloropyrimidin-2-yl)amino)piperidine-1-carbonyl)piperidin-1-yl)-4-oxobutyl)-2-((2-(2,6-dioxopiperidin-3-yl)-1-oxoisoindolin-5-yl)oxy)acetamide], for which the DC50 is under 500 nM.
Consider `O=C(COc1cccc2c1CN(C1CCC(=O)NC1=O)C2=O)NCCCCC(=O)N1CCC(C(=O)N2CCC(Nc3ncc(Cl)c(-c4cccc(-c5ccccc5)c4)n3)CC2)CC1` (stereo not drawn) [Compound 69, N-(5-(4-(4-((4-([1,1′-biphenyl]-3-yl)-5-chloropyrimidin-2-yl)amino)piperidine-1-carbonyl)piperidin-1-yl)-5-oxopentyl)-2-((2-(2,6-dioxopiperidin-3-yl)-1-oxoisoindolin-4-yl)oxy)acetamide], for which the DC50 is under 500 nM.
Still for that read-out and setting: in the case of `O=C1CCC(N2Cc3cc(C4CCN(C5CCN(CC(=O)N6CCC[C@H](Nc7ncc(Cl)c(-c8cccc(-c9ccccc9)c8)n7)C6)CC5)CC4)ccc3C2=O)C(=O)N1` (stereo partly drawn) [Compound 70, 3-(5-(1′-(2-((S)-3-((4-([1,1′-biphenyl]-3-yl)-5-chloropyrimidin-2-yl)amino)piperidin-1-yl)-2-oxoethyl)-[1,4′-bipiperidin]-4-yl)-1-oxoisoindolin-2-yl)piperidine-2,6-dione] it was under 500 nM.
Still for that read-out and setting: to `O=C1CCC(N2Cc3cc(C4CCN(C5CCN(CC(=O)N6CCC(Nc7ncc(Cl)c(-c8cccc(-c9ccccc9)c8)n7)CC6)CC5)CC4)ccc3C2=O)C(=O)N1` (stereo not drawn) [Compound 71, 3-(5-(1′-(2-(4-((4-([1,1′-biphenyl]-3-yl)-5-chloropyrimidin-2-yl)amino)piperidin-1-yl)-2-oxoethyl)-[1,4′-bipiperidin]-4-yl)-1-oxoisoindolin-2-yl)piperidine-2,6-dione] belongs under 500 nM.
